Results taken from patent US10857105B2, “Compounds and compositions for intracellular delivery of therapeutic agents” (ModernaTX, Inc., priority 2017, dated 2020).

Assays:
[1] = Particle size and polydispersity index of nanoparticle compositions (Zetasizer Nano ZS); assay type: physicochemical; conditions: Table 1A; lipid:DSPC:cholesterol:PEG-DMG 50:10:38.5:1.5 mol %
Description: A Zetasizer Nano ZS (Malvern Instruments Ltd, Malvern, Worcestershire, UK) can be used to determine the particle size, the polydispersity index (PDI) and the zeta potential of the nanoparticle compositions in 1×PBS in determining particle size and 15 mM PBS in determining zeta potential.
(§1) Initial studies were performed to compare the delivery efficiency of nanoparticle compositions including various compounds according to Formula (I), (IA), (IB), (II), (IIa), (IIb), (IIc), (IId), (IIe), (IIf), (IIg), or (III). The cationic lipid MC3 is a current standard in the art. Accordingly, the standard MC3 formulation including about 50 mol % MC3, about 10 mol % DSPC, about 38.5 mol % cholesterol, and about 1.5 mol % PEG-DMG was used as a basis for this study. Nanoparticle compositions including DSPC as a phospholipid, cholesterol as a structural lipid, PEG-DMG as a PEG lipid, an RNA, and a compound according to Formula (I), (IA), (IB), (II), (IIa), (IIb), (IIc), (IId), (IIe), (IIf), (IIg), or (III) selected from Compounds 1-159, 168-170, and 173-175 were prepared according to or via methods similar to those described in Examples 1 and 2. The ratios of the lipids were 50:10:38.5:1.5 mol % for the lipid according to Formula (I), (IA), (IB), (II), (IIa), (IIb), (IIc), (IId), (IIe), (IIf), (IIg), or (III):DSPC:cholesterol:PEG-DMG. The RNA used was an mRNA encoding luciferase (Luc) or hEPO, wherein each uridine was replaced N1-methyl pseudouridine. Tables 1A-1E summarize the content and characteristics of the formulations.

modified luciferase = test: Luciferase expression in liver, lung, spleen and femur 6 hours after intravenous administration to mice; assay type: in vivo; conditions: 6 hours after intravenous 0.5 mpk, mice
Description: The efficacy of the nanoparticle compositions presented in Table 1A was further evaluated by measuring the expression of modified luciferase in the liver, lung, spleen, and femur upon administration of a given composition. Formulations were administered intravenously to mice (n=3) at a dosage of 0.5 mpk and bioluminescence measured after 6 hours. The standard MC3 formulation and a PBS control were also tested. […] Flux in the liver was lowest for compositions including Compounds 58, 59, 137, and 141. Flux in the spleen was highest for compositions including Compounds 4, 7, 33, 34, 48, 53, 108, 129, 130, and 148, and lowest for compositions including Compounds 9, 59, 124, and 141.

[2] = Encapsulation efficiency of RNA in nanoparticle compositions (RIBOGREEN assay); assay type: physicochemical; conditions: Table 1A; lipid:DSPC:cholesterol:PEG-DMG 50:10:38.5:1.5 mol %
Description: For nanoparticle compositions including an RNA, a QUANT-IT™ RIBOGREEN® RNA assay (Invitrogen Corporation Carlsbad, Calif.) can be used to evaluate the encapsulation of an RNA by the nanoparticle composition. The samples are diluted to a concentration of approximately 5 μg/mL, in a TE buffer solution (10 mM Tris-HCl, 1 mM EDTA, pH 7.5). 50 μL of the diluted samples are transferred to a polystyrene 96 well plate and either 50 μL of TE buffer or 50 μL of a 2% Triton X-100 solution is added to the wells. The plate is incubated at a temperature of 37° C. for 15 minutes. The RIBOGREEN® reagent is diluted 1:100 in TE buffer, and 100 μL of this solution is added to each well. The fluorescence intensity can be measured using a fluorescence plate reader (Wallac Victor 1420 Multilabel Counter; Perkin Elmer, Waltham, Mass.) at an excitation wavelength of, for example, about 480 nm and an emission wavelength of, for example, about 520 nm. The fluorescence values of the reagent blank are subtracted from that of each of the samples and the percentage of free RNA is determined by dividing the fluorescence intensity of the intact sample (without addition of Triton X-100) by the fluorescence value of the disrupted sample (caused by the addition of Triton X-100).
as §1

luciferase (Luc) mRNA = test: Luciferase expression (whole body bioluminescence) after intravenous administration to mice; assay type: in vivo; conditions: i.v. administration (Table 3C)
Description: In order to monitor how effectively various nanoparticle compositions deliver therapeutic and/or prophylactics to targeted cells, different nanparticle compositions including a particular therapeutic and/or prophylactic (for example, a modified or naturally occurring RNA such as an mRNA) are prepared and administered to rodent populations. Mice are intravenously, intramuscularly, intraarterially, or intratumorally administered a single dose including a nanoparticle composition with a formulation such as those provided in Example 3. In some instances, mice may be made to inhale doses. Dose sizes may range from 0.001 mg/kg to 10 mg/kg, where 10 mg/kg describes a dose including 10 mg of a therapeutic and/or, prophylactic in a nanoparticle composition for each 1 kg of body mass of the mouse. A control composition including PBS may also be employed.
Upon administration of nanoparticle compositions to mice, dose delivery profiles, dose responses, and toxicity of particular formulations and doses thereof can be measured by enzyme-linked immunosorbent assays (ELISA), bioluminescent imaging, or other methods. For nanoparticle compositions including mRNA, time courses of protein expression can also be evaluated. Samples collected from the rodents for evaluation may include blood, sera, and tissue (for example, muscle tissue from the site of an intramuscular injection and internal tissue); sample collection may involve sacrifice of the animals.
The efficacy of the nanoparticle compositions presented in Table 1A was evaluated with a bioluminescence study. Formulations were administered intravenously to mice (n=6) at a dosage of 0.5 mg/kg (mpk) and bioluminescence measured at 3, 6, and 24 hour time points. The standard MC3 formulation and, in some instances, a control (e.g., a PBS control) were evaluated for comparison. […] In general, flux decreased as time progressed to less than 10% of the initial flux.
The total flux (measured by area under the curve, AUC) induced by administration of a formulation including a given lipid relative to that induced by administration of a formulation including MC3 was also measured for several lipids.

SMILES	Size [1] [nm]	Total Flux, Liver (modified luciferase)	Total Flux, Lung (modified luciferase)	Total Flux, Spleen (modified luciferase)	EE [2] [%]	AUC (luciferase (Luc) mRNA) [h*p/s]
CCCCCCCCCOC(=O)CCCCCCCN(CCO)CCCCCCCC(=O)OC(CCC)CCCCCCCC (stereo not drawn) [Compound 34, dodecan-4-yl 8-((2-hydroxyethyl)(8-(nonyloxy)-8-oxooctyl)amino) octanoate]	133.8	2.08E+09	9.49E+06	2.40E+08	92.52	–
CCCCCCCCC(CCCCCCCC)OC(=O)CCCCCCCN(CCO)CCCCCCCCC1CC1CCCCCCCC (stereo not drawn) [Compound 47, heptadecan-9-yl 8-((2-hydroxyethyl)(8-(2-octylyclopropyl)octyl)amino)octanoate]	80.6	4.86E+09	8.71E+06	8.33E+07	96.40	–
CCCCCCCCC(CCCCCCCC)OC(=O)CCCCCCCN(CCO)CCCC(=O)OCCCCC [Compound 52, heptadecan-9-yl 8-((2-hydroxyethyl)(4-oxo-4-(pentyloxy)butyl)amino) octanoate]	130.5	5.86E+08	2.80E+06	8.30E+07	93.25	–
CCCCCCCCC(CCCCCCCC)OC(=O)CCCCCCCN(CCO)CCCC(=O)OCCCCCC [Compound 53, heptadecan-9-yl 8-((4-(hexyloxy)-4-oxobutyl)(2-hydroxyethyl)amino) octanoate]	125.4	2.02E+09	2.47E+07	8.54E+08	95.8	–
CCCCCCCCC(CCCCCCCC)OC(=O)CCCCCCCN(CCO)CCCC(=O)OCCCCCCC [Compound 54, heptadecan-9-yl 8-((4-(heptyloxy)-4-oxobutyl)(2-hydroxyethyl)amino) octanoate]	112.9	5.57E+09	1.12E+07	1.64E+08	96.71	–
CCCCCCCCCOC(=O)CCCCCCCN(CCO)CCCCCCCC(=O)OC(CCCCCC)CCCCCC [Compound 56, nonyl 8-((2-hydroxyethyl)(8-oxo-8-(tridecan-7-yloxy)octyl)amino) octanoate]	112.1	1.04E+09	4.62E+06	1.98E+08	95.18	–
CCCCCCCCCOC(=O)CCCCCCCN(CCO)CCCCCCCC(=O)OC(CCCC)CCCC [Compound 57, nonan-5-yl 8-((2-hydroxyethyl)(8-(nonyloxy)-8-oxooctyl)amino) octanoate]	128.4	9.36E+05	3.18E+04	2.47E+06	94.33	–
CCCCCCCCCOC(=O)CCCCCCCN(CCO)CCCCCCCC(=O)OC(CCC)CCC [Compound 58, heptan-4-yl 8-((2-hydroxyethyl)(8-(nonyloxy)-8-oxooctyl)amino) octanoate]	130.8	8.71E+04	1.21E+04	2.38E+05	92.54	–
CCCCCCCCC(CCCCCCCC)OC(=O)CCCCCCCN(CCO)CCCCCCCC(=O)OC1CCC(CCCCC)CC1 (stereo not drawn) [Compound 66, Heptadecan-9-yl 8-((2-hydroxyethyl)(8-oxo-8-((4-pentylcyclohexyl)oxy)octyl)amino)octanoate]	76.7	5.01E+09	4.20E+06	2.00E+07	–	6.76E+11
CCCCCCCCC(CCCCCCCC)OC(=O)CCCCCCCN(CCO)CCCC(=O)OC(CCCCCC)CCCCCCCC (stereo not drawn) [Compound 73, Heptadecan-9-yl 8-((2-hydroxyethyl)(4-oxo-4-(pentadecan-7-yloxy)butyl)amino)octanoate]	59.2	7.93E+08	6.17E+06	9.45E+06	95.7	–
CCCCCCCCCOC(=O)CCCCCCCN(CCO)CCCCCCCC(=O)OC1CCC(CCCCC)CC1 (stereo not drawn) [Compound 79, Nonyl 8-((2-hydroxyethyl)(8-oxo-8-((4-pentylcyclohexyl)oxy)octyl)amino)octanoate]	93.7	3.15E+06	6.13E+04	6.45E+05	89.1	–
CCCCCCCCCOC(=O)CCCCCCCN(CCO)CCCCCCCC(=O)OC1CCC(C2CCCCC2)CC1 (stereo not drawn) [Compound 80, [1,1′-Bi(cyclohexan)]-4-yl 8-((2-hydroxyethyl)(8-(nonyloxy)-8-oxooctyl)amino)octanoate]	118	1.09E+07	8.97E+04	4.71E+06	90.7	–
CCCCCCCCCOC(=O)CCCCCCCN(CCO)CCCCCCCC(=O)OC1CCCCCCCCCCCCCC1 [Compound 81, Cyclopentadecyl 8-((2-hydroxyethyl)(8-(nonyloxy)-8-oxooctyl)amino)octanoate]	99.2	2.74E+08	6.23E+06	4.49E+07	95.4	–
CCCCCCCCCOC(=O)CCCCCCCN(CCO)CCCCCCCCCOP(=O)(OCCCCCCCCC)OCCCCCCCCC [Compound 127, Nonyl 8-((9-((bis(nonyloxy)phosphoryl)oxy)nonyl)(2-hydroxyethyl)amino)octanoate]	110.4	1.94E+08	5.26E+06	3.21E+08	89.5	–
CCCCCCCCCCCOC(=O)CCCCCN(CCO)CCCCCCCC(=O)N(CCCCCCCC)CCCCCCCC [Compound 129, Undecyl 6-((8-(dioctylamino)-8-oxooctyl)(2-hydroxyethyl)amino)hexanoate]	86.3	6.65E+08	9.89E+06	5.09E+08	77.2	–
